Measurements: patent US10064840B2, “Pharmaceutical composition for the treatment of multi-drug resistant infections” (priority 2014, dated 2018)
Like-named read-outs stand apart in the source and are kept apart here.

Columns and labels:
Type in all cases: cell-based
[1] = tested on: Staphylococcus aureus Mupr-1 (Mde A overexpressing); assay: Mde A efflux pump inhibition, broth checkerboard combination with mupirocin; settings: for MIC: Staphylococcus aureus
Protocol: Staphylococcus aureus Mupr-1 (Mde A overexpressing) was prepared in-house from SA-1199-Wild type clinical isolate which was gifted by Prof. Dr G. W. Kaatz (Wayne State University School of Medicine, Detroit, Mich., USA) by serially passaging SA-1199 strain on mupirocin. Combination studies were performed by a broth checkerboard method. A series of twofold dilutions of test mupirocin in Muller Hinton Broth (pH 7.0) was tested in combination with twofold dilutions of boeravinone B in 96-well microtiter plates. The final concentrations of mupirocin ranged from 0.03 mg/L/ml to 64 mg/L and for boeravinone B from 0.8 mg/L to 50 mg/L. Bacterial inocula were prepared by adjusting the inoculum density of the overnight grown Staphylococcus aureus Mup^r-1 (Mde A overexpressing) to 0.5 McFarland (˜1.5×10^8 CFU/mL of Escherichia coli). Mde A overexpressing derivative S. aureus strain was prepared in lab upon mupirocin treatment (Mup^r-1) from S. aureus strain ATCC No. 29213 (American type culture collection Manassas, Va., USA). These inocula were diluted 1:100 in sterile normal saline and 100 μl of these diluted inocula was dispensed in each well. The final bacterial inoculum reached in each well was equal 5×10^5 CFU/mL. The plates were incubated at 37° C. for 24 hrs. The MIC was read visually as the lowest concentration of mupirocin inhibiting the growth of bacteria as evident from the absence of turbidity. […]

[2] = tested on: Staphylococcus aureus 1199B (Nor A overexpressing); assay: Nor A efflux pump inhibition, broth checkerboard combination with ciprofloxacin; settings: for MEC4 (minimum effective concentration of compound that brings about 4 fold reduction in the MIC of Ciprofloxacin): in combination with ciprofloxacin
Protocol: Combination studies were performed by a broth checkerboard method A series of twofold dilutions of test ciprofloxacin in Muller Hinton Broth (pH 7.0) was tested in combination with twofold dilutions of boeravinone B in 96-well microtiter plates. The final concentrations of ciprofloxacin ranged from 0.03 mg/L/ml to 64 mg/L and for boeravinone B from 0.8 mg/L to 50 mg/L. Piperine at a same concentration range as that of boeravinone B was used as standard EPI. Nor A overexpressing derivative of a clinical isolate (SA-1199B) obtained from S. aureus strain ATCC No. 29213 (American Type Culture Collection Manassas, Va., USA) was kindly gifted by Dr G. W. Kaatz (Wayne State University School of Medicine, Detroit, Mich., USA). Bacterial inocula were prepared by adjusting the inoculum density of the overnight grown Staphylococcus aureus 1199B (Nor A overexpressing) to 0.5 McFarland (˜1.5×10^8 CFU/mL of Escherichia coli). These inocula were diluted 1:100 in sterile normal saline and 100 μl of these diluted inocula was dispensed in each well. The final bacterial inoculum reached in each well was equal 5×10^5 CFU/mL. The plates were incubated at 37° C. for 24 hrs. The MIC was read visually as the lowest concentration of ciprofloxacin inhibiting the growth of bacteria as evident from the absence of turbidity.

[3] = tested on: Staphylococcus aureus SA-K2191 (Msr A overexpressing); assay: Msr A efflux pump inhibition, broth checkerboard combination with erythromycin
Protocol: Combination studies were performed by a broth checkerboard method. A series of two-fold dilutions of test Erythromycin in Muller Hinton Broth (pH 7.0) was tested in combination with twofold dilutions of boeravinone B in 96-well microtiter plates. The final concentrations of erythromycin ranged from 0.03 mg/L/ml to 64 mg/L and for boeravinone B from 0.8 mg/L to 50 mg/L. MsrA overexpressing S. aureus derivative (RN4220) obtained by transforming with pSK265 into which the gene for MsrA has been cloned from S. aureus ATCC 29213 (American type culture collection Manassas, Va., USA) was kindly gifted by Dr G. W. Kaatz (Wayne State University School of Medicine, Detroit, Mich., USA). Bacterial inocula were prepared by adjusting the inoculum density of the overnight grown Staphylococcus aureus SA-K2191 (Msr A overexpressing) to 0.5 McFarland (˜1.5×10^8 CFU/mL of Escherichia coli). These inocula were diluted 1:100 in sterile normal saline and 100 μl of these diluted inocula was dispensed in each well. The final bacterial inoculum reached in each well was equal 5×10^5 CFU/mL. The plates were incubated at 37° C. for 24 hrs. The MIC was read visually as the lowest concentration of erythromycin inhibiting the growth of bacteria as evident from the absence of turbidity. […]

[4] = at 25 μM concentration of boeravinone B

**Q.** Which results are given for Cc1c(O)cc2oc3c(c(=O)c2c1O)-c1ccccc1OC3O (centres unmarked) [Boeravinone B, 6,9,11-trihydroxy-10-methyl[1]benzopyrano[3,4-b][1]benzopyran-12(6H)-one]?
**A.** MIC ([1]; read-out: MIC of mupirocin in presence of compound, compound concentration 0.7 μM): 256 µg/mL; MIC ([1]; read-out: MIC of mupirocin in presence of compound, compound concentration 1.5 μM): 256 µg/mL; MIC ([1]; read-out: MIC of mupirocin in presence of compound, compound concentration 3.12 μM): 256 µg/mL; MIC ([1]; read-out: MIC of mupirocin in presence of compound, compound concentration 6.25 μM): 256 µg/mL; MIC ([1]; read-out: MIC of mupirocin in presence of compound, compound concentration 12.5 μM): 128 µg/mL; MIC ([1]; read-out: MIC of mupirocin in presence of compound, compound concentration 25 μM): 64 µg/mL; MIC ([1]; read-out: MIC of mupirocin in presence of compound, compound concentration 50 μM): 64 µg/mL; reduction of MIC of mupirocin [1, 4]: 4 fold; enhancement in antibacterial activity of mupirocin ([1]; combination with mupirocin, MDR S. aureus, concentration not given): 4 folds; MEC4 (minimum effective concentration of boeravinone B that brings about 4 fold reduction in the MIC of Mupirocin) ([1]; in combination with mupirocin): 25 µM; decrease of the MIC of ciprofloxacin ([2]; at highest concentration (50 μM) of boeravinone B): 8 folds; enhancement in antibacterial activity of ciprofloxacin ([2]; combination with ciprofloxacin, MDR S. aureus, concentration not given): 8 folds; MIC of ciprofloxacin in presence of compound ([2]; compound concentration 0.7 μM): 8 µg/mL; MIC of ciprofloxacin in presence of compound ([2]; compound concentration 1.5 μM): 8 µg/mL; MIC of ciprofloxacin in presence of compound ([2]; compound concentration 3.12 μM): 4 µg/mL; MIC of ciprofloxacin in presence of compound ([2]; compound concentration 6.25 μM): 4 µg/mL; MIC of ciprofloxacin in presence of compound ([2]; compound concentration 12.5 μM): 2 µg/mL; MIC of ciprofloxacin in presence of compound ([2]; compound concentration 25 μM): 1 µg/mL; MIC of ciprofloxacin in presence of compound ([2]; compound concentration 50 μM): 1 µg/mL; MEC4 (minimum effective concentration of compound that brings about 4 fold reduction in the MIC of Ciprofloxacin) [2]: 12.5 µM; reduction of MIC of erythromycin [3, 4]: 4 folds; enhancement in antibacterial activity of erythromycin ([3]; combination with erythromycin, MDR S. aureus, concentration not given): 4 folds; MIC of Erythromycin in presence of compound ([3]; compound concentration 0.7 μM): 64 µg/mL; MIC of Erythromycin in presence of compound ([3]; compound concentration 1.5 μM): 64 µg/mL; MIC of Erythromycin in presence of compound ([3]; compound concentration 3.12 μM): 64 µg/mL; MIC of Erythromycin in presence of compound ([3]; compound concentration 6.25 μM): 64 µg/mL; MIC of Erythromycin in presence of compound ([3]; compound concentration 12.5 μM): 32 µg/mL; MIC of Erythromycin in presence of compound ([3]; compound concentration 25 μM): 16 µg/mL; MIC of Erythromycin in presence of compound ([3]; compound concentration 50 μM): 16 µg/mL; MEC4 (minimum effective concentration of boeravinone B that brings about 4 fold reduction in the MIC of erythromycin) ([3]; in combination with erythromycin): 25 µM

**Q.** Which MIC ([3]; Staphylococcus aureus, 24 h, read-out: MIC of Erythromycin Alone) does the source give for CC[C@H]1OC(=O)[C@H](C)[C@@H](O[C@H]2C[C@@](C)(OC)[C@@H](O)[C@H](C)O2)[C@H](C)[C@@H](O[C@@H]2O[C@H](C)C[C@H](N(C)C)[C@H]2O)[C@](C)(O)C[C@@H](C)C(=O)[C@H](C)[C@@H](O)[C@]1(C)O [Erythromycin, erythromycin, reference compound] here?
**A.** Its MIC is 64 µg/mL.

**Q.** Which MIC ([2]; Staphylococcus aureus, 24 h, read-out: MIC Ciprofloxacin Alone) does the source give for O=C(O)c1cn(C2CC2)c2cc(N3CCNCC3)c(F)cc2c1=O [Ciprofloxacin, ciprofloxacin, reference compound] here?
**A.** The MIC was 8 µg/mL.

**Q.** C/C(=C\C(=O)OCCCCCCCCC(=O)O)C[C@@H]1OC[C@H](C[C@@H]2O[C@H]2[C@@H](C)[C@H](C)O)[C@@H](O)[C@H]1O [mupirocin, reference compound] was tested. Which MIC ([1]; 24 h, read-out: MIC of mupirocin Alone, mupirocin alone, S. aureus Mupr-1, 24 hrs) did it give?
**A.** Its MIC is 256 µg/mL.

**Q.** Which results are given for O=C(/C=C/C=C/c1ccc2c(c1)OCO2)N1CCCCC1 [Piperine, reference compound]?
**A.** MIC of ciprofloxacin in presence of compound ([2]; compound concentration 0.7 μM): 8 µg/mL; MIC of ciprofloxacin in presence of compound ([2]; compound concentration 1.5 μM): 8 µg/mL; MIC of ciprofloxacin in presence of compound ([2]; compound concentration 3.12 μM): 8 µg/mL; MIC of ciprofloxacin in presence of compound ([2]; compound concentration 6.25 μM): 8 µg/mL; MIC of ciprofloxacin in presence of compound ([2]; compound concentration 12.5 μM): 8 µg/mL; MIC of ciprofloxacin in presence of compound ([2]; compound concentration 25 μM): 4 µg/mL; MIC of ciprofloxacin in presence of compound ([2]; compound concentration 50 μM): 4 µg/mL; MEC4 (minimum effective concentration of compound that brings about 4 fold reduction in the MIC of Ciprofloxacin) [2]: >50 µM
